Common to all, as to details: biochemical
The target of assay [1] is His-CREBBP (1081-1197) bromodomain (Homo sapiens (Human), UniProt Q92793). The experiment in a line: AlphaScreen in-vitro binding assay for CREBBP. How it is done: AlphaScreen In-Vitro Binding Assay for CREBBP
In order to assess bromodomain selectivity, we set up a binding assay using the bromodomain encoded by the CREBBP gene. […] Reactions were incubated at 30° C. for 35 minutes. Subsequently 4.5 μL per well detection mix (50 mM HEPES, pH 7.5, 0.005% Tween20, 0.02% BSA, 150 mM NaCl, 45 μg/ml Ni-chelate acceptor beads, 45 μg/mL streptavidin-donor beads) (Perkin Elmer)) were added. After 60 minutes incubation at room temperature, plates were measured in a Perkin Elmer EnVision multilabel reader. IC50 values were determined from percent inhibition values at different compound concentrations by non-linear regression analysis.
(§1) Test compounds were dissolved in DMSO (10 mM) and transferred into 1.4 mL flat bottom or V-shaped Matrix tubes carrying a unique 2D matrix. The stock solutions were stored at […] if not used immediately. For the test procedure the vials were defrosted and identified by a scanner whereby a working sheet was generated that guided the subsequent working steps. Compound dilutions were made in 96 well plates. This format enabled the assay of maximally […] at 8 concentrations (single points) including 4 reference compounds, if desired (known BET inhibitors from the prior art, for this and other assays of the type disclosed herein). The dilution protocol included the production of “pre-dilution plates”, “master plates” and “assay plates”.
(§2) Polypropylene 96-well plates were used as pre-dilution plates. […] All dilution steps were done on a HamiltonSTAR robot.
These plates were used directly for the assay which was performed in a total volume of 13.55 μL.
A general note: In Alpha technology, singlet oxygen from a donor bead excites a nearby acceptor bead.

The next assay has as its target His-Brd4(44-477) (Homo sapiens (Human), UniProt O60885). The experiment in a line: TR-FRET in-vitro binding assay for BRD4. How it is done: (§3) TR-FRET In-Vitro Binding Assays for BRD2, BRD3, and BRD4:
(§4) All assays were performed in 384-well microtiter plates. Each assay plate contained 8-point serial dilutions for 40 test compounds, plus 16 high- and 16 low controls. Liquid handling and incubation steps were done on an Innovadyne Nanodrop Express equipped with a robotic arm (Thermo CatX, Perkin Elmer/Caliper Twister II) and an incubator (Liconic STX40, Thermo Cytomat 2C450). The assay plates were prepared by addition of 50 nl per well of compound solution in 90% DMSO HummingBird nanodispenser (Zinsser Analytic). The assay was started by stepwise addition of 4.5 μL per well of bromo domain protein (50 mM HEPES, pH 7.5, 0.005% Tween20, 0.1% BSA, 50 mM NaCl, 45 nM His-Brd2(60-472) or 45 nM His-Brd3(20-477) or 45 nM His-Brd4(44-477) all proteins produced in-house) and 4.5 μL per well of peptide solution (50 mM HEPES, pH 7.5, 0.005% Tween20, 0.1% BSA, 50 mM NaCl, 60 nM acetyl-histone H4 (AcK 5, 8, 12, 16) (Biosyntan GmbH)). Reactions were incubated at 30° C. for 35 minutes. Subsequently 4.5 μL per well detection mix (50 mM HEPES, pH 7.5, 0.005% Tween20, 0.1% BSA, 50 mM NaCl, 3 nM Eu-labeled anti-His6 antibody, 21 nM streptavidin-allophycocyanin) were added. After minutes incubation at 30° C., plates were measured in a Perkin Elmer EnVision multilabel reader.
as §1, §2
(§5) 30 μL of individual compound dilutions including standard compound and controls of the 4 “pre-dilution plates” were transferred into a 384-well “master plate” including the following concentrations 10000, […], 1000, 300, 100, 30, 10 and 3 μM, respectively in 90% of DMSO.
(§6) Identical “assay plates” were then prepared by pipetting 50 nL each of compound dilutions of the “master plates” into 384-well “assay plates” by means of a HummingBird 384-channel dispenser. These plates were used directly for the assay which was performed in a total volume of 13.55 μL.
(In general: TR-FRET usually uses a lanthanide donor and a delayed reading to cut background.)

Another assay has as its target His-Brd2(60-472) (Homo sapiens (Human), UniProt P25440). The experiment in a line: TR-FRET in-vitro binding assay for BRD2. How it is done: as §3, §4, §1, §2, §5, §6
Another assay addresses His-Brd3(20-477) (Homo sapiens (Human), UniProt Q15059). The experiment in a line: TR-FRET in-vitro binding assay for BRD3. How it is done: as §3, §4, §1, §2, §5, §6

Usually IC50 stands for the concentration needed to halve the response being measured. Low readings indicate higher potency, high ones lower potency.

Sequence of His-Brd3(20-477) (Q15059 20-477): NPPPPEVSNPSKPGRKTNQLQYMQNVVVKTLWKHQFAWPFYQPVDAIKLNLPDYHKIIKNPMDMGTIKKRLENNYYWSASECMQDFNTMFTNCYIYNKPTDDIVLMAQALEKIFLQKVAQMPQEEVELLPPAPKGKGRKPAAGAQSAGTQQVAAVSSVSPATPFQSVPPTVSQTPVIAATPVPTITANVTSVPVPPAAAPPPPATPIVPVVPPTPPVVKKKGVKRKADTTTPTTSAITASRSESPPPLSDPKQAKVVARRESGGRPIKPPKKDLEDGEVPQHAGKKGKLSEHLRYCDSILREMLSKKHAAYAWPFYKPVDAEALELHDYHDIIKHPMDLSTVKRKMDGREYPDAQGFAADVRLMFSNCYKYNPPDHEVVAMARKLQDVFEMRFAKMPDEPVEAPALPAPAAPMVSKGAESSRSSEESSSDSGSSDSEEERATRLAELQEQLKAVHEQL
Sequence of His-Brd2(60-472) (P25440 60-472): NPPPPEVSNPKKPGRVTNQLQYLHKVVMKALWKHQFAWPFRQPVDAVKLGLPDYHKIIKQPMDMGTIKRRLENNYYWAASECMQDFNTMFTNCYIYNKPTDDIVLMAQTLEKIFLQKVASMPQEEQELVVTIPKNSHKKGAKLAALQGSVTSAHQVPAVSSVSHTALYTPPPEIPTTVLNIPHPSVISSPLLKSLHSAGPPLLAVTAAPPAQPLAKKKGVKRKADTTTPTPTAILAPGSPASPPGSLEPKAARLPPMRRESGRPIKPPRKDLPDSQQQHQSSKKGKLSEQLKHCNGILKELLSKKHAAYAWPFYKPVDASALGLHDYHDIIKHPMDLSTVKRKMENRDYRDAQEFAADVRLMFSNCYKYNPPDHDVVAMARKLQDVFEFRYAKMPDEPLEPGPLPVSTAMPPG
Sequence of His-CREBBP (1081-1197) bromodomain (Q92793 1081-1197): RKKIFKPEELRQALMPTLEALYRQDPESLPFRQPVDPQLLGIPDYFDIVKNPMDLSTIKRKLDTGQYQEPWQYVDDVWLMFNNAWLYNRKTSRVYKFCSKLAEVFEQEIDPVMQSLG

On to `Cc1c2c(nn1C)C(=O)N(c1cc(Cl)c(=O)n(C)c1)C2c1ccc(Cl)cc1` (centres unmarked) [Example 6, 5-(5-chloro-1-methyl-6-oxo-1,6-dihydropyridin-3-yl)-4-(4-chlorophenyl)-2,3-dimethyl-4,5-dihydropyrrolo[3,4-c]pyrazol-6(2H)-one], for which the IC50 in assay [1] is 3500 nM; on His-Brd4(44-477) it was 190 nM; on His-Brd2(60-472), 350 nM; on His-Brd3(20-477) it was 180 nM.

Turning to `Cc1nn(C2CC2)c2c1C(c1ccc(Cl)cc1)N(c1cc(Cl)c(=O)n(C)c1)C2=O` (racemic) [Example 24, 5-(5-chloro-1-methyl-6-oxo-1,6-dihydropyridin-3-yl)-4-(4-chlorophenyl)-1-cyclopropyl-3-methyl-4,5-dihydropyrrolo[3,4-c]pyrazol-6(1H)-one], the half-inhibitory concentration (IC50) in assay [1] came to 5900 nM; at His-Brd4(44-477), 150 nM; at His-Brd2(60-472), 230 nM; on His-Brd3(20-477) it was 150 nM.

`Cn1cc(N2C(=O)c3nn(C4CC4)c(C(F)(F)F)c3C2c2ccc(Cl)cc2)cc(Cl)c1=O` (centres unmarked) [Example 40, 5-(5-chloro-1-methyl-6-oxo-1,6-dihydropyridin-3-yl)-4-(4-chlorophenyl)-2-cyclopropyl-3-(trifluoromethyl)-4,5-dihydropyrrolo[3,4-c]pyrazol-6(2H)-one]: the half-inhibitory concentration (IC50) in assay [1] is 740 nM; on His-Brd4(44-477) it was 220 nM; on His-Brd2(60-472), 160 nM; on His-Brd3(20-477), 150 nM.

For the compound `Cc1[nH]nc2c1C(c1ccc(Cl)cc1)N(c1cc(Cl)c(=O)n(C)c1)C2=O` (centres unmarked) [Example 5, 5-(5-chloro-1-methyl-6-oxo-1,6-dihydropyridin-3-yl)-4-(4-chlorophenyl)-3-methyl-4,5-dihydropyrrolo[3,4-c]pyrazol-6(2H)-one], the IC50 in assay [1] is 5600 nM; at His-Brd4(44-477), 360 nM; on His-Brd2(60-472), 730 nM; at His-Brd3(20-477) it was 370 nM.

Consider `Cc1cc(N2C(=O)c3nn(C4CC4)c(C(F)(F)F)c3C2c2ccc(Cl)cc2)cn(C)c1=O` (centres unmarked) [Example 43, 4-(4-chlorophenyl)-2-cyclopropyl-5-(1,5-dimethyl-6-oxo-1,6-dihydropyridin-3-yl)-3-(trifluoromethyl)-4,5-dihydropyrrolo[3,4-c]pyrazol-6(2H)-one], for which the 50% inhibitory concentration (IC50) turned out to be 660 nM in assay [1], 120 nM on His-Brd4(44-477), 100 nM at His-Brd2(60-472) and 110 nM on His-Brd3(20-477).

In the case of `Cn1cc(N2C(=O)c3nn(C4CC4)cc3C2c2ccc(Cl)cc2)cc(Cl)c1=O` (centres unmarked) [Example 37, 5-(5-chloro-1-methyl-6-oxo-1,6-dihydropyridin-3-yl)-4-(4-chlorophenyl)-2-cyclopropyl-4,5-dihydropyrrolo[3,4-c]pyrazol-6(2H)-one], the IC50 turned out to be 1200 nM in assay [1], 170 nM on His-Brd4(44-477), 140 nM at His-Brd2(60-472) and 140 nM at His-Brd3(20-477).

On to `Cc1nn(C2CC2)c2c1[C@H](c1ccc(Cl)cc1)N(c1cc(Cl)c(=O)n(C)c1)C2=O` [Example 50, (S)-5-(5-chloro-1-methyl-6-oxo-1,6-dihydropyridin-3-yl)-4-(4-chlorophenyl)-1-cyclopropyl-3-methyl-4,5-dihydropyrrolo[3,4-c]pyrazol-6(1H)-one], for which the figures for the IC50 (in assay [1]; on His-Brd2(60-472)) were above 5100 nM and above 6700 nM, respectively.

`Cc1nn(C2CC2)c2c1[C@H](c1ccc(Cl)cc1)N(c1cc(C)c(=O)n(C)c1)C2=O` [Example 48, (S)-4-(4-chlorophenyl)-1-cyclopropyl-5-(1,5-dimethyl-6-oxo-1,6-dihydropyridin-3-yl)-3-methyl-4,5-dihydropyrrolo[3,4-c]pyrazol-6(1H)-one]: the half-inhibitory concentration (IC50) in assay [1] was above 5100 nM; at His-Brd4(44-477) it was above 6700 nM; at His-Brd2(60-472), above 6700 nM; at His-Brd3(20-477), above 6700 nM.

Take `Cc1nn(C2CC2)c2c1[C@@H](c1ccc(F)cc1F)N(c1cc(C)c3nnc(C)n3c1)C2=O` [Example 188, (S)-1-cyclopropyl-4-(2,4-difluorophenyl)-5-(3,8-dimethyl-[1,2,4]triazolo[4,3-a]pyridin-6-yl)-3-methyl-4,5-dihydropyrrolo[3,4-c]pyrazol-6(1H)-one]: the IC50 came to 19000 nM in assay [1], 31 nM at His-Brd4(44-477), 41 nM at His-Brd2(60-472) and 40 nM at His-Brd3(20-477).

Turning to `COCc1nn(C2CC2)c2c1C(c1ccc(Cl)cc1)N(c1cc(C)c(=O)n(C)c1)C2=O` (racemic) [Example 132, 4-(4-chlorophenyl)-1-cyclopropyl-5-(1,5-dimethyl-6-oxo-1,6-dihydropyridin-3-yl)-3-(methoxymethyl)-4,5-dihydropyrrolo[3,4-c]pyrazol-6(1H)-one], the half-maximal inhibitory concentration (IC50) in assay [1] was 4800 nM; on His-Brd4(44-477), 67 nM; on His-Brd2(60-472) it was 81 nM; on His-Brd3(20-477), 89 nM.

In the case of `Cc1cc(N2C(=O)c3nn(C(C)C)cc3C2c2ccc(Cl)cc2)cn(C)c1=O` (centres unmarked) [Example 41, 4-(4-chlorophenyl)-5-(1,5-dimethyl-6-oxo-1,6-dihydropyridin-3-yl)-2-isopropyl-4,5-dihydropyrrolo[3,4-c]pyrazol-6(2H)-one], the IC50 in assay [1] was 380 nM; on His-Brd4(44-477) it was 96 nM; at His-Brd2(60-472), 75 nM; on His-Brd3(20-477) it was 85 nM.

For `Cc1cc(N2C(=O)c3nn(C)c(C)c3C2c2ccc(Cl)cc2)cn(C)c1=O` (centres unmarked) [Example 28, 4-(4-chlorophenyl)-5-(1,5-dimethyl-6-oxo-1,6-dihydropyridin-3-yl)-2,3-dimethyl-4,5-dihydropyrrolo[3,4-c]pyrazol-6(2H)-one], the IC50 in assay [1] amounted to 3300 nM; at His-Brd4(44-477), 140 nM; on His-Brd2(60-472), 320 nM; at His-Brd3(20-477), 160 nM.

On to `CCn1nc(C)c2c1C(=O)N(c1cc(C)c3nnc(C)n3c1)[C@@H]2c1ccc(F)cc1F` [Example 191, (S)-4-(2,4-difluorophenyl)-5-(3,8-dimethyl-[1,2,4]triazolo[4,3-a]pyridin-6-yl)-1-ethyl-3-methyl-4,5-dihydropyrrolo[3,4-c]pyrazol-6(1H)-one], for which the half-inhibitory concentration (IC50) in assay [1] came out at 10000 nM; at His-Brd4(44-477), 25 nM; on His-Brd2(60-472), 69 nM; on His-Brd3(20-477) it was 31 nM.

Consider `CCn1nc(C)c2c1C(=O)N(c1cc(C)c3nnc(C)n3c1)[C@@H]2c1ccc(Cl)cc1F` [Example 192, (S)-4-(4-chloro-2-fluorophenyl)-5-(3,8-dimethyl-[1,2,4]triazolo[4,3-a]pyridin-6-yl)-1-ethyl-3-methyl-4,5-dihydropyrrolo[3,4-c]pyrazol-6(1H)-one], for which the IC50 came out at 7100 nM in assay [1], 39 nM at His-Brd4(44-477), 53 nM at His-Brd2(60-472) and 44 nM at His-Brd3(20-477).

As to `CC(C)n1ncc2c1C(=O)N(c1cc(Cl)c(=O)n(C)c1)C2c1ccc(Cl)cc1` (centres unmarked) [Example 38, 5-(5-chloro-1-methyl-6-oxo-1,6-dihydropyridin-3-yl)-4-(4-chlorophenyl)-1-isopropyl-4,5-dihydropyrrolo[3,4-c]pyrazol-6(1H)-one], the half-maximal inhibitory concentration (IC50) in assay [1] is 1900 nM; on His-Brd4(44-477), 62 nM; at His-Brd2(60-472), 49 nM; on His-Brd3(20-477) it was 76 nM.

`Cc1cc(N2C(=O)c3nn(C4CC4)c(C)c3C2c2ccc(Cl)cc2)cn(C)c1=O` (centres unmarked) [Example 20, 4-(4-chlorophenyl)-2-cyclopropyl-5-(1,5-dimethyl-6-oxo-1,6-dihydropyridin-3-yl)-3-methyl-4,5-dihydropyrrolo[3,4-c]pyrazol-6(2H)-one]: the IC50 in assay [1] turned out to be 1100 nM; on His-Brd4(44-477), 88 nM; at His-Brd2(60-472) it was 130 nM; on His-Brd3(20-477), 77 nM.
